ChEMBL document CHEMBL3860107, “Discovery of [5-Amino-1-(2-methyl-3H-benzimidazol-5-yl)pyrazol-4-yl]-(1H-indol-2-yl)methanone (CH5183284/Debio 1347), An Orally Available and Selective Fibroblast Growth Factor Receptor (FGFR) Inhibitor” (J Med Chem, 2016)
pIC50: −log10 of the molar value. Values after ≈ are worked out from the molar mass of the structure shown. Active and inactive are the calls of the source. The rule behind the calls is not given here.

Columns and labels:
[1] = Intrinsic clearance in human liver microsomes at 1 uM in presence of NADPH incubated for 30 mins by LC/MS method; format: ADME; settings: read-out: CLH
[2] = Antiproliferative activity against human SNU16 cells incubated for 4 days by CCK8 assay; format: functional, cell-based; settings: SNU-16, 96 h
[3] = Solubility in FaSSIF at pH 6.5 irradiated ultrasonically for 10 mins and shaken for 2 hrs followed by centrifugation for 10 mins by HPLC-UV method; format: physicochemical
cells = settings: Homo sapiens, HCT-116, 96 h
Description: Antiproliferative activity against human HCT116 cells incubated for 4 days by CCK8 assay

[4] = target: Vascular endothelial growth factor receptor 2 (Homo sapiens, UniProt P35968); assay: Inhibition of human KDR by time-resolved fluorescence or time-resolved fluorescence assay
Chain of Vascular endothelial growth factor receptor 2 (P35968 whole entry): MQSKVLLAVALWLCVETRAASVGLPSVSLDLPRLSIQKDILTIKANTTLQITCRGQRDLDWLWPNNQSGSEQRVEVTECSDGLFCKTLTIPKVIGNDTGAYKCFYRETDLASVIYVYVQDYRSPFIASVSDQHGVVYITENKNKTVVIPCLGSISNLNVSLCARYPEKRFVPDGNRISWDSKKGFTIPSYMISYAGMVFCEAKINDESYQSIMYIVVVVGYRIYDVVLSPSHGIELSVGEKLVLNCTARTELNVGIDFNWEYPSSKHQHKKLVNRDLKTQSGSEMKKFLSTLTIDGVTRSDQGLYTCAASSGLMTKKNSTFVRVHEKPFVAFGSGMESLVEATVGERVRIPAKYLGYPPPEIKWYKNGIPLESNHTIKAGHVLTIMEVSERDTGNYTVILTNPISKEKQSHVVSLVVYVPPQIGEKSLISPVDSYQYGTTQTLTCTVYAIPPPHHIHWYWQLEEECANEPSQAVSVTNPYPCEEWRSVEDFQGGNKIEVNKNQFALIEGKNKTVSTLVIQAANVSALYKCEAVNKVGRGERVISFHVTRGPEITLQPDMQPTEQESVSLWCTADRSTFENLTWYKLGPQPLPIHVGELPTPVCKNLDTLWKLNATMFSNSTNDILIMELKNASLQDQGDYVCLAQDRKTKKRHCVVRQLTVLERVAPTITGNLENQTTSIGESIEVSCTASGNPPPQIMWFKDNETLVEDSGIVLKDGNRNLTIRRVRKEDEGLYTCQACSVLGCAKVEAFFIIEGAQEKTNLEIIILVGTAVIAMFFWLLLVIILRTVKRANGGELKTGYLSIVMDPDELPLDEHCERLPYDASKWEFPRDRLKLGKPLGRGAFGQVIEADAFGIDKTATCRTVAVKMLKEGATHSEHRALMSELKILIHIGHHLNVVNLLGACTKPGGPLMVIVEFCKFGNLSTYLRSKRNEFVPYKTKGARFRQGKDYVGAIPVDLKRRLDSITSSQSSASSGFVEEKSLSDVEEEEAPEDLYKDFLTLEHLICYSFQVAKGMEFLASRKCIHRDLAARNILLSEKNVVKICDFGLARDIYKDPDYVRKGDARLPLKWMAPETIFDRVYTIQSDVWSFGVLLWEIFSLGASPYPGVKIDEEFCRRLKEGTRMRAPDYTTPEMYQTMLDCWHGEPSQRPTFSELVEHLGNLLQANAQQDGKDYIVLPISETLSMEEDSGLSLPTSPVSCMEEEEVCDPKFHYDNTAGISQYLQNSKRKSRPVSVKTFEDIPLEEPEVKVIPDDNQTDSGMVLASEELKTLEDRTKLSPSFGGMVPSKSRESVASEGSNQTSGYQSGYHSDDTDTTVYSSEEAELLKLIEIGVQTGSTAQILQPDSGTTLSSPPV

hERG (KCNH2) = hERG (KCNH2) (Homo sapiens, UniProt Q12809); assay: Inhibition of human ERG expressed in CHO cells assessed as reduction in channel currents at 10 uM at -80 mV holding potential by automated whole-cell patch clamp method; settings: CHO cells that express hERG
Chain of hERG (KCNH2) (Q12809 whole entry): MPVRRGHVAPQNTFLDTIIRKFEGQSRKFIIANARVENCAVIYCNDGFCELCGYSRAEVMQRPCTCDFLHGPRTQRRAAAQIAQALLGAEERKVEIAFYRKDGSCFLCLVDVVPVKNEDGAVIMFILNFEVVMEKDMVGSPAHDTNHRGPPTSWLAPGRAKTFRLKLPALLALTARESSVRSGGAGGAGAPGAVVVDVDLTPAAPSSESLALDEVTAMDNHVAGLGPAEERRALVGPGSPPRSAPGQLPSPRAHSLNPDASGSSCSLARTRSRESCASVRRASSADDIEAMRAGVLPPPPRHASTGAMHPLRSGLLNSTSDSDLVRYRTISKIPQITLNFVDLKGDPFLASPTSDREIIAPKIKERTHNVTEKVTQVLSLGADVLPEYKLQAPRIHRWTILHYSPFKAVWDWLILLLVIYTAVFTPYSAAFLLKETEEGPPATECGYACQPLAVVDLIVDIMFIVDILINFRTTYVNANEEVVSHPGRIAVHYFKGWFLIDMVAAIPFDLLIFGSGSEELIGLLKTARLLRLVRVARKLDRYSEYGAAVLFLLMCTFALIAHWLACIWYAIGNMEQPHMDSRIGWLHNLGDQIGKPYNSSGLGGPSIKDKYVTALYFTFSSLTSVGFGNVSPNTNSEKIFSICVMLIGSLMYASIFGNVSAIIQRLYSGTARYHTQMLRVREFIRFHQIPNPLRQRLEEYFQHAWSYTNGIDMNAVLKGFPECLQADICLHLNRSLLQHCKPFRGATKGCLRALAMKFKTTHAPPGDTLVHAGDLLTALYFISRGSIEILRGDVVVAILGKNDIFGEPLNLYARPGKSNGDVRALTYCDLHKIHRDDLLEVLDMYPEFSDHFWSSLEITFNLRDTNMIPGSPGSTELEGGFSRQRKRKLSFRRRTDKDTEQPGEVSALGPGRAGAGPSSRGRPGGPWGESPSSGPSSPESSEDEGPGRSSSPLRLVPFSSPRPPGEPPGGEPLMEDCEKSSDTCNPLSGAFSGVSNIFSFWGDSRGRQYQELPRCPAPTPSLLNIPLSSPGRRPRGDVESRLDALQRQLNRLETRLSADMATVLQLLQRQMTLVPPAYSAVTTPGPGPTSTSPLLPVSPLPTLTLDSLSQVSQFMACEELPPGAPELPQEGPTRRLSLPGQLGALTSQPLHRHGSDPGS

[5] = Oral bioavailability cynomolgus monkey at 1 mg/kg by LC-MS/MS method; format: ADME, organism-based, Macaca fascicularis; settings: in vivo
[6] = target: Voltage-gated inwardly rectifying potassium channel KCNH2 (Homo sapiens, UniProt Q12809); assay: Inhibition of human ERG expressed in CHO cells assessed as reduction in channel currents at -80 mV holding potential by automated whole-cell patch clamp method
Chain of Voltage-gated inwardly rectifying potassium channel KCNH2 (Q12809 whole entry): as above

SNU-16 = settings: Homo sapiens
UM-UC-14 = settings: Homo sapiens
Description: Antitumor activity against FGFR3 S249C mutant expressing human UM-UC-14 cells xenografted in mouse

MFE-280 = settings: Homo sapiens
Description: Antitumor activity against FGFR2 S252W mutant expressing human MFE280 cells xenografted in mouse

[7] = Antitumor activity against human SNU16 cells xenografted in CAnN.Cg-Foxn1 (nu)/CrlCrlj nu/nu BALB nu/nu mouse assessed as tumor growth inhibition at 100 mg/kg, po qd for 11 days; format: functional; settings: SNU-16, po, 264 h, read-out: TGI
KG-1 = settings: Homo sapiens
Description: Antitumor activity against FGFR1OP-FGFR1 fusion protein expressing human KG1 cells xenografted in mouse

RT112/84 = settings: Homo sapiens
Description: Antitumor activity against FGFR3-TACC3 mutant expressing human RT112/84 cells xenografted in mouse

[8] = Antitumor activity against human SNU16 cells xenografted in CAnN.Cg-Foxn1 (nu)/CrlCrlj nu/nu BALB nu/nu mouse assessed as tumor growth inhibition at 30 mg/kg, po qd for 11 days; format: functional; settings: SNU-16, po, 264 h, read-out: TGI
[9] = Permeability from apical to basolateral side in human Caco2 cells at 10 uM incubated for 120 mins by LC-MS/MS method; format: ADME, cell-based; settings: Caco-2, read-out: permeability
[10] = target: Proto-oncogene tyrosine-protein kinase Src (Homo sapiens, UniProt P12931); assay: Inhibition of human SRC by time-resolved fluorescence or time-resolved fluorescence assay
Chain of Proto-oncogene tyrosine-protein kinase Src (P12931 2-536 limits assumed): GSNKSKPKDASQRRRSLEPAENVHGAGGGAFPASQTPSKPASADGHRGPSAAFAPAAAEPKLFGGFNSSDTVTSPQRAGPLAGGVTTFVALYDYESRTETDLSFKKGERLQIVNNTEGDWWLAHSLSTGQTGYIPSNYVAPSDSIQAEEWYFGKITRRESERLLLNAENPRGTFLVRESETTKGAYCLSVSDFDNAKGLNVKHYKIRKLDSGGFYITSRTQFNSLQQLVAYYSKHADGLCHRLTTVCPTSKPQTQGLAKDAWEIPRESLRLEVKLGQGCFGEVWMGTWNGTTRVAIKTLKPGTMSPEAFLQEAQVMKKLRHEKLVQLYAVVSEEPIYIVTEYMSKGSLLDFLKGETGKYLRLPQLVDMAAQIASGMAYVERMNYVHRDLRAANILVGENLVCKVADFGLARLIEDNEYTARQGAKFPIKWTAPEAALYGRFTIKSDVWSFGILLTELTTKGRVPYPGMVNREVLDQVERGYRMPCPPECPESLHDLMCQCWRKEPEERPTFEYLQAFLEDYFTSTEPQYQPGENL

[11] = target: Fibroblast growth factor receptor 4 (Homo sapiens, UniProt P22455); assay: Inhibition of human FGFR4 by time-resolved fluorescence or time-resolved fluorescence assay
Chain of Fibroblast growth factor receptor 4 (P22455 whole entry): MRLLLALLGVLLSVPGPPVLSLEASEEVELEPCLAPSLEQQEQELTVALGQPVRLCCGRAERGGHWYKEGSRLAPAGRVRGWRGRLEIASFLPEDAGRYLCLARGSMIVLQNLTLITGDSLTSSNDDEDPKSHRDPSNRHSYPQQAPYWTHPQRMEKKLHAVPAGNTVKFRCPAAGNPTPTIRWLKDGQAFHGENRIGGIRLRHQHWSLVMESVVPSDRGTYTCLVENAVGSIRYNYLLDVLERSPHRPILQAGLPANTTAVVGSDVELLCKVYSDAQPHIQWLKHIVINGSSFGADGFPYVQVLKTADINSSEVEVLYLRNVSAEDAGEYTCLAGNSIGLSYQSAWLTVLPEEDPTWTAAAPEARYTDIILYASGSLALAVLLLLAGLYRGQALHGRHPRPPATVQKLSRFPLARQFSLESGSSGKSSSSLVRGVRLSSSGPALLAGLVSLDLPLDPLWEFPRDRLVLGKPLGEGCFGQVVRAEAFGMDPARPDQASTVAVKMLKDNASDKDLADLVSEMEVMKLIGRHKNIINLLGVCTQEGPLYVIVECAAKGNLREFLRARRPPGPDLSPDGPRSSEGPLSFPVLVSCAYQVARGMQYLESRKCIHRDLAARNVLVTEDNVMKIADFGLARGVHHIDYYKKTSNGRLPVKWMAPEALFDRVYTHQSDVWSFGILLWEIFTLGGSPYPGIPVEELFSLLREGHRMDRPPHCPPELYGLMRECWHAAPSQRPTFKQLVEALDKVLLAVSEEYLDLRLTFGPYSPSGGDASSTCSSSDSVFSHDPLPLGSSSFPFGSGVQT

[12] = target: Fibroblast growth factor receptor 1 (Homo sapiens, UniProt P11362)
Description: Inhibition of human FGFR1 by time-resolved fluorescence or time-resolved fluorescence assay

[13] = target: Fibroblast growth factor receptor 3 (Homo sapiens, UniProt P22607)
Description: Inhibition of human FGFR3 by time-resolved fluorescence or time-resolved fluorescence assay

Rattus norvegicus [14] = assay: Cardiotoxicity in telemetry instrumented rat assessed as effect on blood pressure at 30 mg/kg; format: toxicity, organism-based; settings: in vivo
[15] = AUC in rat at 30 mg/kg; format: ADME, organism-based; settings: in vivo
Mus musculus = assay: Toxicity in human SNU16 cells xenografted CAnN.Cg-Foxn1 (nu)/CrlCrlj nu/nu BALB nu/nu mouse assessed as induction of body weight loss at 30 and 100 mg/kg, po qd for 11 days; format: organism-based, SNU-16; settings: in vivo, 264 h
Rattus norvegicus [16] = species on record: Rattus norvegicus; assay: Cardiotoxicity in rat assessed as effect on blood pressure; format: toxicity, organism-based
[17] = Cardiotoxicity in monkey assessed as effect on blood pressure; format: toxicity, Macaca mulatta; settings: rhesus monkey
[18] = Cardiotoxicity in Langendorff's isolated guinea pig heart perfusion model in assessed as induction of QTc prolongation; format: toxicity, tissue-based, Cavia porcellus

| Structure (SMILES) | microsomal CLint at 1 µM [1] [µL/min/mg] | pIC50 [2] | solubility at 2 h [3] [µg/mL] | pIC50 (cells) | pIC50 [4] | inhibition at 10 µM (hERG (KCNH2)) [%] | pIC50 [6] | further results |
| --- | --- | --- | --- | --- | --- | --- | --- | --- |
| Nc1c(C(=O)c2cc3ccccc3[nH]2)cnn1-c1ccc2nc[nH]c2c1 | 4.2 | 6.42 | 37 (≈ 108 µM) | 4.77 | 6.47 |  |  |  |
| Cc1nc2cc(-n3ncc(C(=O)c4cc5ccc(CN6CCC(F)(F)CC6)cc5[nH]4)c3N)ccc2[nH]1 | 14 | 8.22 |  |  | 6.55 | 58 | 5.07 | bioavailability [5]: 5% |
| Nc1c(C(=O)c2cc3ccccc3[nH]2)cnn1-c1ccccc1Cl |  | 5.54 |  | 5.57 | 6.39 |  |  |  |
| Cc1nc2cc(-n3ncc(C(=O)c4cc5ccc(CN6CCOCC6)cc5[nH]4)c3N)ccc2[nH]1 | 9.6 | 8.59 |  |  | 6.92 | 15 | < 5.00 | bioavailability [5]: 0% |
| Cc1nc2ccc(-n3ncc(C(=O)c4cc5ccccc5[nH]4)c3N)cc2[nH]1 [FGFR INHIBITOR DEBIO 1347] |  | 7.77 |  | 5.23 |  |  |  | AUC (SNU-16): 26000 ng·h/mL; TGI (UM-UC-14): Active; TGI (MFE-280): Active; inhibition in vivo at 100 mg/kg [7]: 147%; TGI (KG-1): Active; TGI (RT112/84): Active; inhibition in vivo at 30 mg/kg [8]: 106% |
| Cc1ccc2cc(C(=O)c3cnn(-c4ccc5nc(C)[nH]c5c4)c3N)[nH]c2c1 | 140 |  |  | 5.01 | 6.43 | 64 | 5.16 |  |
| Nc1c(C(=O)c2cc3ccccc3[nH]2)cnn1-c1cc(O)ccc1Cl | 15 | 6.44 | 20 (≈ 56.7 µM) | 5.59 | 7.55 |  |  |  |
| Cc1nc2cc(-n3ncc(C(=O)c4cc5ccc(Br)cc5[nH]4)c3N)ccc2[nH]1 | 4.2 | 7.28 |  | 4.96 | 6.54 | 31 | < 5.00 | bioavailability [5]: 20%; Papp A→B at 2 h, 10 µM [9]: 2.2 ×10⁻⁶ cm/s; pIC50 [10]: < 4.30 |
| Nc1c(C(=O)c2cc3ccccc3o2)cnn1-c1cc(O)ccc1Cl |  | 5.48 |  | 5.09 | 6.77 |  |  |  |
| Nc1c(C(=O)c2cc3cc(CN4CCOCC4)ccc3[nH]2)cnn1-c1cc(O)ccc1Cl | 20 | 6.26 | 40 (≈ 88.5 µM) | 5.44 | 8.62 |  |  |  |
| Nc1c(C(=O)c2ccc3ncccc3c2)cnn1-c1cc(O)ccc1Cl |  | 5.05 |  | 5.03 | 5.80 |  |  |  |
| Cc1nc2ccc(-n3ncc(C(=O)c4cc5cc(CN6CCOCC6)ccc5[nH]4)c3N)cc2[nH]1 | 15 | 7.77 |  | 5.05 | 6.68 | 7 | < 5.00 |  |
| CCc1nc2cc(-n3ncc(C(=O)c4cc5ccccc5[nH]4)c3N)ccc2[nH]1 | 23 | 7.11 | 42 (≈ 113 µM) | 5.82 | 5.77 |  |  |  |
| Nc1c(C(=O)c2cc3ccccc3[nH]2)cnn1-c1ccc2[nH]c(=O)[nH]c2c1 |  |  |  |  | 5.57 |  |  | pIC50 [11]: < 4.30; pIC50 [12]: < 4.30; pIC50 [13]: < 4.30 |
| Cc1nc2cc(-n3ncc(C(=O)c4cc5ccccc5[nH]4)c3N)ccc2[nH]1 [FGFR INHIBITOR DEBIO 1347] | 13 |  | 29 (≈ 81.4 µM) |  | 5.68 | 69 | 5.16 | bioavailability [5]: 30%; Activity (Rattus norvegicus [14]): Non-Toxic; AUC [15]: 102 µg·h/mL; Activity (Mus musculus): Non-Toxic; pIC50 [11]: 6.54; Activity (Rattus norvegicus [16]): Non-Toxic; pIC50 [10]: 5.23; Activity [17]: Non-Toxic; Activity [18]: Non-Toxic |
| Cc1cccc(C(=O)c2cnn(-c3cc(O)ccc3Cl)c2N)c1 |  | 4.82 |  | < 4.70 | 5.54 |  |  |  |
| Cc1nc2cc(-n3ncc(C(=O)c4cc5ccc(-c6ccccc6)cc5[nH]4)c3N)ccc2[nH]1 | 3.2 | 7.08 |  |  | 5.47 | 15 | < 5.00 | bioavailability [5]: 3%; pIC50 [10]: < 4.30 |
| Cc1cc2cc(-n3ncc(C(=O)c4cc5ccccc5[nH]4)c3N)ccc2[nH]1 | 10 | 7.28 | 10 (≈ 28.1 µM) | 5.28 |  |  |  |  |
| Cc1nc2cc(-n3ncc(C(=O)c4cc5ccc(S(C)(=O)=O)cc5[nH]4)c3N)ccc2[nH]1 | 5.4 | 7.09 |  | 4.43 | 6.00 |  |  |  |
| Nc1c(C(=O)c2cc3ccccc3[nH]2)cnn1-c1ccc2[nH]ccc2c1 | 4.4 | 6.72 | 4 (≈ 11.7 µM) | 6.33 |  |  |  |  |
